Source: US8604218B2, “Cytoskeletal active rho kinase inhibitor compounds, composition and use” (Inspire Pharmaceuticals, Inc., priority 2006, dated 2013)

biological target: ROCK2 (Homo sapiens (Human), UniProt O75116); experiment: Rho Kinase Inhibition Assay (IMAP fluorescence polarization); type: biochemical; conditions: isolated enzyme, 10 μM ATP, 60 minutes at room temperature
Protocol: Following the preincubation, 10 μM ATP was added to initiate the reaction. After 60 minutes at room temperature, Molecular Devices IMAP™ binding solution was added to bind phosphorylated substrate. After 30 minutes of incubation in the presence of the IMAP™ beads the fluorescence polarization was read and the ratio was reported as mP. IC50 results were calculated using the Prism software from Graphpad.
See Tian et al., Arch. Ophthalmol. […] Ophthalmol. Vis. […] Ophthalmol. […] Cytoskel. […] Ophthalmol. Vis. […] Ophthalmol. Vis.

ROCK2, sequence (O75116 11-552): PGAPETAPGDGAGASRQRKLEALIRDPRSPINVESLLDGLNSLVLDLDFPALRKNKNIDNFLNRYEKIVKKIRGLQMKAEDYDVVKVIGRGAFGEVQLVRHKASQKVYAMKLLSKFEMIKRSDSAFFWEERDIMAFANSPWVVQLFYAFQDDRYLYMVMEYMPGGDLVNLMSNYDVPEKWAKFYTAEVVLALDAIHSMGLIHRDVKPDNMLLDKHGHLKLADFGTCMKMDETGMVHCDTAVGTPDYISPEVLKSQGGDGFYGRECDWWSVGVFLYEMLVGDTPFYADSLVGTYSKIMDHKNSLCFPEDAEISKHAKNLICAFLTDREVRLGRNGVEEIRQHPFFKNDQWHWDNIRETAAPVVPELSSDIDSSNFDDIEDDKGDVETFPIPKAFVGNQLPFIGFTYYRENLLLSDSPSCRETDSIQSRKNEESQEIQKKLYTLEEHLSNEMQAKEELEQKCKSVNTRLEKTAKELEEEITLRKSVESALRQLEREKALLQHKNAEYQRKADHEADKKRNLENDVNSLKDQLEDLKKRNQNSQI

Row | SMILES | IC50 [µM]
1 | OCCOc1cccc(CN2CCC[C@H](Nc3cccc4cnccc34)C2)c1 [Compound 2.036, (S)-2-(3-((3-(isoquinolin-5-ylamino)piperidin-1-yl)methyl)phenoxy)ethanol] | 0.16
2 | CC(=O)Nc1ccc(CN2CCCC(Nc3ccc4[nH]ncc4c3)C2)cc1 (centres unmarked) [Compound 1.003, N-(4-((3-(1H-indazol-5-ylamino)piperidin-1-yl)methyl)phenyl)acetamide] | 6.19
3 | CSc1ccc(CN2CC[C@H](Nc3cccc4cnccc34)C2)cc1 [Compound 2.029, (S)-N-(1-(4-(methylthio)benzyl)pyrrolidin-3-yl)isoquinolin-5-amine] | 3.14
4 | c1cc(N2CCCC2)ccc1CN1CCCC(Nc2ccc3[nH]ncc3c2)C1 (centres unmarked) [Compound 1.011, N-(1-(4-(pyrrolidin-1-yl)benzyl)piperidin-3-yl)-1H-indazol-5-amine] | 12.2
5 | C#Cc1ccc(CN2CCCC(Nc3ccc4[nH]ncc4c3)C2)cc1 (centres unmarked) [Compound 1.034, N-(1-(4-ethynylbenzyl)piperidin-3-yl)-1H-indazol-5-amine] | 0.0691
6 | NC(=O)COc1cccc(CN2CCCC(Nc3ccc4[nH]ncc4c3)C2)c1 (centres unmarked) [Compound 1.098, 2-(3-((3-(1H-indazol-5-ylamino)piperidin-1-yl)methyl)phenoxy)acetamide] | 0.25
7 | FC(F)(F)Oc1ccc(CN2CCCC(Nc3ccc4[nH]ncc4c3)C2)cc1 (centres unmarked) [Compound 1.022, N-(1-(4-(trifluoromethoxy)benzyl)piperidin-3-yl)-1H-indazol-5-amine] | 1.61
8 | c1cc(N[C@H]2CCN(Cc3ccc(SC4CC4)cc3)C2)c2ccncc2c1 [Compound 2.024, (S)-N-(1-(4-(cyclopropylthio)benzyl)pyrrolidin-3-yl)isoquinolin-5-amine] | 8.92
9 | CC(=O)c1ccc(CN2CCCC(Nc3ccc4[nH]ncc4c3)C2)cc1 (centres unmarked) [Compound 1.036, 1-(4-((3-(1H-indazol-5-ylamino)piperidin-1-yl)methyl)phenyl)ethanone] | 1.02
10 | Cc1ccc(CN2CCCC(Nc3ccc4[nH]ncc4c3)C2)cc1O (centres unmarked) [Compound 1.059, 5-((3-(1H-indazol-5-ylamino)piperidin-1-yl)methyl)-2-methylphenol] | 0.032
11 | c1cc(N[C@H]2CCN(Cc3ccc(C4CC4)cc3)C2)c2ccncc2c1 [Compound 2.019, (S)-N-(1-(4-cyclopropylbenzyl)pyrrolidin-3-yl)isoquinolin-5-amine] | 4.08
12 | CC(=O)NCc1cccc(CN2CCCC(Nc3ccc4[nH]ncc4c3)C2)c1 (centres unmarked) [Compound 1.122, N-(3-((3-(1H-indazol-5-ylamino)piperidin-1-yl)methyl)benzyl)acetamide] | 0.254
13 | c1cc(N[C@@H]2CCN(Cc3ccc(C4CC4)cc3)C2)c2ccncc2c1 [Compound 2.022, (R)-N-(1-(4-cyclopropylbenzyl)pyrrolidin-3-yl)isoquinolin-5-amine] | 0.311
14 | O=C(O)COc1cccc(CN2CC[C@@H](Nc3cccc4cnccc34)C2)c1 [Compound 2.044, (R)-2-(3-((3-(isoquinolin-5-ylamino)pyrrolidin-1-yl)methyl)phenoxy)acetic acid] | 0.433
15 | CSc1ccc(CN2CCC[C@@H](Nc3ccc4[nH]ncc4c3)C2)cc1 [Compound 1.074, (R)-N-(1-(4-(methylthio)benzyl)piperidin-3-yl)-1H-indazol-5-amine] | 0.0716
16 | Clc1ccc(Oc2cccc(CN3CCCC(Nc4ccc5[nH]ncc5c4)C3)c2)cc1 (centres unmarked) [Compound 1.069, N-(1-(3-(4-chlorophenoxy)benzyl)piperidin-3-yl)-1H-indazol-5-amine] | 6.05
17 | OCCN1CCc2ccc(CN3CCCC(Nc4ccc5[nH]ncc5c4)C3)cc21 (centres unmarked) [Compound 1.104, 2-(6-((3-(1H-indazol-5-ylamino)piperidin-1-yl)methyl)indolin-1-yl)ethanol] | 0.107
18 | Fc1ccc(CN2CCC[C@@H](Nc3ccc4[nH]ncc4c3)C2)cc1F [Compound 1.073, (R)-N-(1-(3,4-difluorobenzyl)piperidin-3-yl)-1H-indazol-5-amine] | 0.111
19 | CN(c1cccc(CN2CCCC(Nc3ccc4[nH]ncc4c3)C2)c1)S(C)(=O)=O (centres unmarked) [Compound 1.121, N-(3-((3-(1H-indazol-5-ylamino)piperidin-1-yl)methyl)phenyl)-N-methylmethanesulfonamide] | 0.578
20 | N#Cc1cccc(CN2CCCC(Nc3cccc4cnccc34)C2)c1 (centres unmarked) [Compound 2.003, 3-((3-(isoquinolin-5-ylamino)piperidin-1-yl)methyl)benzonitrile] | 5.72
21 | C#Cc1ccc(CN2CC[C@@H](Nc3cccc4cnccc34)C2)cc1 [Compound 2.031, (R)-N-(1-(4-ethynylbenzyl)pyrrolidin-3-yl)isoquinolin-5-amine] | 0.0871
22 | OCCOc1cccc(CN2CCC(Nc3ccc4[nH]ncc4c3)C2)c1 (centres unmarked) [Compound 1.088, 2-(3-((3-(1H-indazol-5-ylamino)pyrrolidin-1-yl)methyl)phenoxy)ethanol] | 0.651

Row | SMILES | IC50 [µM]
23 | c1cc(N[C@@H]2CCN(Cc3ccc(SC4CC4)cc3)C2)c2ccncc2c1 [Compound 2.021, (R)-N-(1-(4-(cyclopropylthio)benzyl)pyrrolidin-3-yl)isoquinolin-5-amine] | 1.9
24 | Clc1ccc(CN2CCCC(Nc3cccc4cnccc34)C2)cc1Cl (centres unmarked) [Compound 2.014, N-(1-(3,4-dichlorobenzyl)piperidin-3-yl)isoquinolin-5-amine] | 1.67
25 | NC(=O)Cn1ccc2cc(CN3CCCC(Nc4ccc5[nH]ncc5c4)C3)ccc21 (centres unmarked) [Compound 1.105, 2-(5-((3-(1H-indazol-5-ylamino)piperidin-1-yl)methyl)-1H-indol-1-yl)acetamide] | 0.172
26 | NC(=O)Cn1ccc2ccc(CN3CCC[C@@H](Nc4ccc5[nH]ncc5c4)C3)cc21 [Compound 1.106, (R)-2-(6-((3-(1H-indazol-5-ylamino)piperidin-1-yl)methyl)-1H-indol-1-yl)acetamide] | 0.0692
27 | c1cc(CN2CCCC(Nc3ccc4[nH]ncc4c3)C2)cc(C2CC2)c1 (centres unmarked) [Compound 1.021, N-(1-(3-cyclopropylbenzyl)piperidin-3-yl)-1H-indazol-5-amine] | 0.553
28 | C[C@@H](O)COc1cccc(CN2CCC[C@@H](Nc3ccc4[nH]ncc4c3)C2)c1 [Compound 1.116, (R)-1-(3-(((R)-3-(1H-indazol-5-ylamino)piperidin-1-yl)methyl)phenoxy)propan-2-ol] | 0.862
29 | CSc1ccc(CN2CCC[C@H](Nc3ccc4[nH]ncc4c3)C2)cc1 [Compound 1.075, (S)-N-(1-(4-(methylthio)benzyl)piperidin-3-yl)-1H-indazol-5-amine] | 0.0745
30 | c1cc2cc(CN3CCCC(Nc4ccc5[nH]ncc5c4)C3)ccc2s1 (centres unmarked) [Compound 1.054, N-(1-(benzo[b]thiophen-5-ylmethyl)piperidin-3-yl)-1H-indazol-5-amine] | 0.132
31 | CC(=O)Nc1ccc(CN2CCCC(Nc3cccc4cnccc34)C2)cc1 (centres unmarked) [Compound 2.004, N-(4-((3-(isoquinolin-5-ylamino)piperidin-1-yl)methyl)phenyl)acetamide] | 3.71
32 | c1cn(-c2ccc(CN3CCCC(Nc4ccc5[nH]ncc5c4)C3)cc2)cn1 (centres unmarked) [Compound 1.010] | 2.8
33 | Clc1ccc(CN2CC[C@H](Nc3cccc4cnccc34)C2)cc1 [Compound 2.030, (S)-N-(1-(4-chlorobenzyl)pyrrolidin-3-yl)isoquinolin-5-amine] | 2.46
34 | OCCn1ccc2ccc(CN3CCCC(Nc4ccc5[nH]ncc5c4)C3)cc21 (centres unmarked) [Compound 1.101, 2-(6-((3-(1H-indazol-5-ylamino)piperidin-1-yl)methyl)-1H-indol-1-yl)ethanol] | 0.0685
35 | c1ccc(CN2CCCC(Nc3ccc4[nH]ncc4c3)CC2)cc1 (centres unmarked) [Compound 1.031, N-(1-benzylazepan-4-yl)-1H-indazol-5-amine] | 1.75
36 | OCCOc1cccc(CN2CC[C@H](Nc3cccc4cnccc34)C2)c1 [Compound 2.032, (S)-2-(3-((3-(isoquinolin-5-ylamino)pyrrolidin-1-yl)methyl)phenoxy)ethanol] | 5.33
37 | NCc1ccc(CN2CCCC(Nc3ccc4[nH]ncc4c3)C2)cc1 (centres unmarked) [Compound 1.035, N-(1-(4-(aminomethyl)benzyl)piperidin-3-yl)-1H-indazol-5-amine] | 0.208
38 | COc1ccc(CN2CCCC(Nc3cccc4cnccc34)C2)cc1 (centres unmarked) [Compound 2.001, N-(1-(4-methoxybenzyl)piperidin-3-yl)isoquinolin-5-amine] | 0.0988
39 | CS(=O)(=O)c1ccc(CN2CCC(Nc3ccc4[nH]ncc4c3)C2)cc1 (centres unmarked) [Compound 1.004, N-(1-(4-(methylsulfonyl)benzyl)pyrrolidin-3-yl)-1H-indazol-5-amine] | 0.254
40 | CCOC(=O)COc1cccc(CN2CCCC(Nc3ccc4[nH]ncc4c3)C2)c1 (centres unmarked) [Compound 1.060, ethyl 2-(3-((3-(1H-indazol-5-ylamino)piperidin-1-yl)methyl)phenoxy)acetate] | 0.0872
41 | FC(F)(F)c1cccc(CN2CCC(Nc3ccc4[nH]ncc4c3)C2)c1 (centres unmarked) [Compound 1.064, N-(1-(3-(trifluoromethyl)benzyl)pyrrolidin-3-yl)-1H-indazol-5-amine] | 0.165
42 | CCS(=O)(=O)Nc1cccc(CN2CC[C@@H](Nc3cccc4cnccc34)C2)c1 [Compound 2.041, (R)-N-(3-((3-(isoquinolin-5-ylamino)pyrrolidin-1-yl)methyl)phenyl)ethanesulfonamide] | 0.168
43 | OCCOc1cccc(CN2CCC[C@@H](Nc3ccc4[nH]ncc4c3)C2)c1 [Compound 1.092, (R)-2-(3-((3-(1H-indazol-5-ylamino)piperidin-1-yl)methyl)phenoxy)ethanol] | 0.406
44 | Nc1n[nH]c2ccc(NC3CCCN(Cc4ccccc4)C3)cc12 (centres unmarked) [Compound 1.050, N5-(1-benzylpiperidin-3-yl)-1H-indazole-3,5-diamine] | 1.04
